Columns and labels:
kochia = experiment: Test C pre-/postemergence herbicide test; type: in vivo, Kochia scoparia; conditions: for Kochia plant response rating: 500 g ai/ha
Summary of the method: (§1)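 Visual injury scores run from 0 (no effect) to 100 (complete control), assessed relative to untreated controls 12 to 14 days after treatment in the greenhouse. Chemicals were formulated in a non-phytotoxic solvent mixture with surfactant and applied to soil after planting or to emerged plants at the 1- to 4-leaf stage.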

large crabgrass = experiment: Test A pre-/postemergence herbicide test; type: in vivo, Digitaria sanguinalis
Summary of the method: (§2)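 Pre: seeded sandy loam, directed soil spray, compound in non-phytotoxic solvent + surfactant. Post: 1–2-leaf plants (2–10 cm), sprayed to runoff. Greenhouse ~10 d; visual injury vs untreated, 0–100 scale.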

velvetleaf [1] = experiment: Test C pre-/postemergence herbicide test; type: in vivo, Abutilon theophrasti; conditions: for Velvetleaf plant response rating: 500 g ai/ha
Summary of the method: as §1

morningglory = experiment: Test C pre-/postemergence herbicide test; type: in vivo, Ipomoea coccinea; parameters: key to Plant response rating, Morningglory: 0 = no effect, 100 = complete control; conditions: for Morningglory plant response rating: 500 g ai/ha
Summary of the method: as §1

Surinam grass = experiment: Test C pre-/postemergence herbicide test; type: in vivo, Urochloa decumbens; conditions: for Plant response rating (0 = no effect, 100 = complete control), Surinam Grass: 62 g ai/ha; for Plant response rating (0 = no effect, 100 = complete control), Surinam Grass / Plant response rating, Surinam Grass: preemergence; for Plant response rating, Surinam Grass: visual, 12 to 14 days; for Surinam Grass plant response rating: 500 g ai/ha
Summary of the method: as §1

barnyardgrass = experiment: Test A pre-/postemergence herbicide test; type: in vivo, Echinochloa crus-galli
Summary of the method: as §2

corn = experiment: Test C pre-/postemergence herbicide test; type: in vivo, Zea mays; conditions: for Corn plant response rating: 500 g ai/ha
Summary of the method: as §1

velvetleaf [2] = experiment: Test B pre-/postemergence herbicide test; type: in vivo, Abutilon theophrasti
Summary of the method: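 Greenhouse pot assay with simultaneous preemergence (treated seed) and postemergence (2–18 cm seedlings) applications of surfactant-containing, non-phytotoxic solvent formulations. Response scored visually 13–15 days later on a 0–100 scale, 100 meaning complete control.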

[3] = test system: smallflower umbrella sedge; experiment: Test C flooded paddy test; type: in vivo, Cyperus difformis; conditions: for Plant response rating, Sedge, Umbrella: 500 g ai/ha, visual rating after 12 to 14 days
[4] = 125 g ai/ha, scale 0 (no effect) to 100 (complete control), visual, 12 to 14 days, preemergence
[5] = Postemergence, 250 g ai/ha, 0 to 100 scale, 0 no effect, 100 complete control
[6] = Postemergence, 1000 g ai/ha, 0 to 100 scale, 0 no effect, 100 complete control
[7] = Preemergence, 1000 g ai/ha, visual rating, 0 to 100 scale (0 no effect, 100 complete control)
[8] = preemergence, 250 g ai/ha, visual injury, 0 to 100 scale (0 no effect, 100 complete control)
[9] = 125 g ai/ha, scale 0 (no effect) to 100 (complete control)
[10] = 250 g ai/ha, scale 0 to 100 (0 no effect, 100 complete control), visual, 12 to 14 days, preemergence
[11] = postemergence, 125 g ai/ha, visual rating, scale 0 (no effect) to 100 (complete control)
[12] = preemergence, 125 g ai/ha, 0 to 100 scale, 0 is no effect, 100 is complete control
[13] = 62 g ai/ha, scale 0 to 100 (0 no effect, 100 complete control)
[14] = 250 g ai/ha, scale of 0 to 100, 0 is no effect, 100 is complete control
[15] = scale 0 to 100 (0 no effect, 100 complete control)
[16] = Postemergence, 125 g ai/ha, scale 0 to 100, 0 no effect, 100 complete control
[17] = Postemergence, 250 g ai/ha, scale 0 to 100, 0 no effect, 100 complete control
[18] = Preemergence, scale 0 to 100, 0 no effect, 100 complete control
[19] = postemergence, 62 g ai/ha, scale 0 to 100
[20] = Postemergence, 500 g ai/ha, 0 to 100 scale, 0 no effect, 100 complete control
[21] = Postemergence, 2000 g ai/ha, 0 to 100 scale, 0 no effect, 100 complete control
[22] = Preemergence, 500 g ai/ha, visual rating, 0 to 100 scale (0 no effect, 100 complete control)
[23] = Preemergence, 2000 g ai/ha, 0 to 100 scale, 0 no effect, 100 complete control

With `CCn1nc(C(C)(C)C)cc1C(=O)Nc1cccc(SC)c1` [Compound 131] the “Plant response rating (0 = no effect, 100 = complete control), Kochia” value (kochia; 62 g ai/ha, preemergence) was 85, the “Plant response rating, Kochia” value (kochia; [4]) was 85 and the “Crabgrass, Large plant response rating” value (large crabgrass; [5]) was 20. The “Plant response rating, Crabgrass, Large” value (large crabgrass; [6]) was 40, the “Crabgrass, Large plant response rating” value (large crabgrass; [7]) was 85 and the “Crabgrass, Large plant response rating” value (large crabgrass; [8]) was 20. The “Plant response rating, Velvetleaf” value (velvetleaf [1]; [4]) was 15, the “Plant response rating (0 = no effect, 100 = complete control), Morningglory” value (morningglory; 62 g ai/ha, preemergence) was 0 and the “Plant response rating, Morningglory” value (morningglory; [4]) was 0. For the same molecule, the “Plant response rating (0 = no effect, 100 = complete control), Surinam Grass” value (Surinam grass) was 0, the “Plant response rating, Surinam Grass” value (Surinam grass; [9]) was 0 and the “Barnyardgrass plant response rating” value (barnyardgrass; [5]) was 25. The “Plant response rating, Barnyardgrass” value (barnyardgrass; [6]) was 60, the “Barnyardgrass plant response rating” value (barnyardgrass; [7]) was 50 and the “Barnyardgrass plant response rating” value (barnyardgrass; [8]) was 45. The “Plant response rating (0 = no effect, 100 = complete control), Corn” value (corn; 62 g ai/ha, preemergence) was 0, the “Plant response rating, Corn” value (corn; [4]) was 0 and the “Plant response rating, Corn” value (corn; [10]) was 0. For the same molecule, the “Plant response rating, Velvetleaf” value (velvetleaf [2]; 500 g ai/ha, visual rating 0-100, 0 no effect, 100 complete control, preemergence) was 100, the “Velvetleaf plant response rating” value (velvetleaf [2]; [11]) was 10 and the “Velvetleaf plant response rating” value (velvetleaf [2]; postemergence, 500 g ai/ha, visual rating, scale 0 (no effect) to 100 (complete control)) was 40. The “Plant response rating, Velvetleaf” value (velvetleaf [2]; [12]) was 50, the “Sedge, Umbrella plant response rating” value [3, 13] was 55 and the “Sedge, Umbrella plant response rating” value ([3]; 125 g ai/ha, scale 0 to 100 (0 no effect, 100 complete control)) was 65. The “Sedge, Umbrella plant response rating” value [3, 14] was 70 and the “Plant response rating, Sedge, Umbrella” value [3, 15] was 80.

`CCNC(=O)c1cc(NC(=O)c2cc(C(C)(C)C)nn2CC)ccc1F` [Compound 58] was tested, and the “Plant response rating (0 = no effect, 100 = complete control), Kochia” value (kochia; 62 g ai/ha, preemergence) was 95, the “Plant response rating, Kochia” value (kochia; [4]) was 95 and the “Plant response rating, Kochia” value (kochia; [10]) was 95. For the same molecule, the “Kochia plant response rating” value (kochia; Postemergence, scale 0 to 100) was 85, the “Plant response rating, Kochia” value (kochia; [16]) was 80 and the “Plant response rating, Kochia” value (kochia; [17]) was 80. For the same molecule, the “Kochia plant response rating” value (kochia; [18]) was 100, the “Plant response rating, Kochia” value (kochia; [19]) was 75 and the “Plant response rating, Crabgrass, Large” value (large crabgrass; [20]) was 40. For the same molecule, the “Plant response rating, Crabgrass, Large” value (large crabgrass; [21]) was 75, the “Crabgrass, Large plant response rating” value (large crabgrass; [22]) was 70 and the “Crabgrass, Large plant response rating” value (large crabgrass; [23]) was 95. The “Plant response rating, Velvetleaf” value (velvetleaf [1]; [4]) was 100, the “Plant response rating, Velvetleaf” value (velvetleaf [1]; [10]) was 100 and the “Velvetleaf plant response rating” value (velvetleaf [1]; Postemergence, scale 0 to 100) was 60. For the same molecule, the “Plant response rating, Velvetleaf” value (velvetleaf [1]; [17]) was 35, the “Velvetleaf plant response rating” value (velvetleaf [1]; [18]) was 100 and the “Plant response rating, Velvetleaf” value (velvetleaf [1]; [19]) was 10. For the same molecule, the “Plant response rating (0 = no effect, 100 = complete control), Morningglory” value (morningglory; 62 g ai/ha, preemergence) was 10, the “Plant response rating, Morningglory” value (morningglory; [4]) was 20 and the “Plant response rating, Morningglory” value (morningglory; [10]) was 50. The “Morningglory plant response rating” value (morningglory; Postemergence, scale 0 to 100) was 20, the “Plant response rating, Morningglory” value (morningglory; [17]) was 10 and the “Morningglory plant response rating” value (morningglory; [18]) was 80. For the same molecule, the “Plant response rating, Morningglory” value (morningglory; [19]) was 10, the “Plant response rating (0 = no effect, 100 = complete control), Surinam Grass” value (Surinam grass) was 10 and the “Plant response rating, Surinam Grass” value (Surinam grass; [9]) was 55. For the same molecule, the “Plant response rating, Surinam Grass” value (Surinam grass; 250 g ai/ha, scale 0 to 100 (0 no effect, 100 complete control)) was 80, the “Surinam Grass plant response rating” value (Surinam grass; Postemergence, scale 0 to 100) was 25 and the “Surinam Grass plant response rating” value (Surinam grass; [18]) was 100. The “Plant response rating, Barnyardgrass” value (barnyardgrass; [20]) was 70, the “Plant response rating, Barnyardgrass” value (barnyardgrass; [21]) was 80 and the “Barnyardgrass plant response rating” value (barnyardgrass; [22]) was 65. For the same molecule, the “Barnyardgrass plant response rating” value (barnyardgrass; [23]) was 75, the “Plant response rating (0 = no effect, 100 = complete control), Corn” value (corn; 62 g ai/ha, preemergence) was 0 and the “Plant response rating, Corn” value (corn; [4]) was 0. The “Plant response rating, Corn” value (corn; [10]) was 0, the “Corn plant response rating” value (corn; Postemergence, scale 0 to 100) was 15 and the “Plant response rating, Corn” value (corn; [16]) was 5. The “Plant response rating, Corn” value (corn; [17]) was 5, the “Corn plant response rating” value (corn; [18]) was 0 and the “Plant response rating, Corn” value (corn; [19]) was 0. For the same molecule, the “Plant response rating, Velvetleaf” value (velvetleaf [2]; Postemergence, 500 g ai/ha, visual rating after 13 to 15 days, scale 0 (no effect) to 100 (complete control)) was 70, the “Velvetleaf plant response rating” value (velvetleaf [2]; Preemergence, 500 g ai/ha, scale 0 to 100) was 100 and the “Velvetleaf plant response rating” value (velvetleaf [2]; [11]) was 50. For the same molecule, the “Plant response rating, Velvetleaf” value (velvetleaf [2]; [12]) was 60, the “Sedge, Umbrella plant response rating” value [3, 13] was 0 and the “Sedge, Umbrella plant response rating” value ([3]; 125 g ai/ha, scale of 0 to 100, 0 is no effect, 100 is complete control) was 20. The “Sedge, Umbrella plant response rating” value [3, 14] was 50 and the “Plant response rating, Sedge, Umbrella” value [3, 15] was 65.

— US20060069132A1, “Azolecarboxamide herbicides” (priority 2004, published 2006)
